PubChem BioAssay AID248 (DTP/NCI, 2004)
Values joined by “and” are separate entries in the source; they are usually repeats but may differ in a detail not shown here. Equal entries are not always repeated. Inconclusive results and toxic doses are left out. No stated cut-off is given here; in the data, active means T/C of 150% or more; inactive means T/C below 125%.

Tested on: L1210 leukemia ip in BDF1 mice, survival T/C
Assay: NCI In Vivo Anticancer Drug Screen. Data for tumor model L1210 Leukemia (intraperitoneal) in B6D2F1 (BDF1) mice
Conditions: endpoint: mean survival time, higher = longer survival
Method in brief: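 Each compound was tested against a transplantable tumor grown in mice. The endpoint was survival, with treated animals benchmarked against vehicle controls as a simple ratio.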

[1] = dose: 100.0 mg/kg/injection, schedule: Q01DX009 (ip), vehicle: Klucel (hydroxypropylcellulose) (HPC)
[2] = dose: 200.0 mg/kg/injection, schedule: Q01DX009 (ip), vehicle: Klucel (hydroxypropylcellulose) (HPC)
[3] = dose: 400.0 mg/kg/injection, schedule: Q01DX009 (ip), vehicle: Klucel (hydroxypropylcellulose) (HPC)
[4] = dose: 50.0 mg/kg/injection, schedule: Q01DX009 (ip), vehicle: saline with Tween-80
[5] = dose: 100.0 mg/kg/injection, schedule: Q01DX009 (ip), vehicle: saline with Tween-80
[6] = dose: 200.0 mg/kg/injection, schedule: Q01DX009 (ip), vehicle: saline with Tween-80
[7] = dose: 25.0 mg/kg/injection, schedule: Q04DX003 (ip), vehicle: saline with Tween-80
[8] = dose: 50.0 mg/kg/injection, schedule: Q04DX003 (ip), vehicle: saline with Tween-80
[9] = dose: 100.0 mg/kg/injection, schedule: Q04DX003 (ip), vehicle: saline with Tween-80
[10] = dose: 200.0 mg/kg/injection, schedule: Q04DX003 (ip), vehicle: saline with Tween-80
[11] = dose: 400.0 mg/kg/injection, schedule: Q04DX003 (ip), vehicle: saline with Tween-80
[12] = dose: 100.0 mg/kg/injection, schedule: Q04DX002 (ip), vehicle: saline with Tween-80
[13] = dose: 200.0 mg/kg/injection, schedule: Q04DX002 (ip), vehicle: saline with Tween-80
[14] = dose: 400.0 mg/kg/injection, schedule: Q04DX002 (ip), vehicle: saline with Tween-80
[15] = dose: 100.0 mg/kg/injection, schedule: Q04DX003 (ip), vehicle: saline
[16] = dose: 100.0 mg/kg/injection, schedule: Q01DX001 (ip), vehicle: Klucel (hydroxypropylcellulose) (HPC)
[17] = dose: 200.0 mg/kg/injection, schedule: Q01DX001 (ip), vehicle: Klucel (hydroxypropylcellulose) (HPC)
[18] = dose: 400.0 mg/kg/injection, schedule: Q01DX001 (ip), vehicle: Klucel (hydroxypropylcellulose) (HPC)
[19] = dose: 25.0 mg/kg/injection, schedule: Q01DX009 (ip), vehicle: saline
[20] = dose: 25.0 mg/kg/injection, schedule: Q04DX003 (ip), vehicle: saline

Measured: T/C

CC(C)(c1cc(Br)sc1Br)c1cc(Br)sc1Br
inactive: dose: 50.0 mg/kg/injection, schedule: Q01DX009 (ip), vehicle: Klucel (hydroxypropylcellulose) (HPC) 95 % of control | [1] 98 % of control | dose: 100.0 mg/kg/injection, schedule: Q04DX003 (ip), vehicle: acetone 106 % of control | [2] 101 % of control | dose: 200.0 mg/kg/injection, schedule: Q04DX003 (ip), vehicle: acetone 117 % of control | dose: 400.0 mg/kg/injection, schedule: Q04DX003 (ip), vehicle: acetone 104 % of control

CCOC(=O)C(C(=O)OCC)c1cccc(Cl)c1
inactive: dose: 50.0 mg/kg/injection, schedule: Q01DX001 (ip), vehicle: saline 106 % of control | dose: 100.0 mg/kg/injection, schedule: Q01DX001 (ip), vehicle: saline 109 % of control | dose: 200.0 mg/kg/injection, schedule: Q01DX001 (ip), vehicle: saline 103 % of control | dose: 400.0 mg/kg/injection, schedule: Q01DX001 (ip), vehicle: saline 103 % of control

CC(C)(C)OC(=O)COc1cccc([N+](=O)[O-])c1
inactive: [1] 114 % of control | [2] 102 % of control | [3] 100 % of control

COc1ccc(Cl)cc1NC(=O)CC(C)=O
inactive: [1] 101 % of control | dose: 100.0 mg/kg/injection, schedule: Q04DX003 (ip), vehicle: Klucel (hydroxypropylcellulose) (HPC) 97 % of control | [2] 101 % of control | dose: 200.0 mg/kg/injection, schedule: Q04DX003 (ip), vehicle: Klucel (hydroxypropylcellulose) (HPC) 99 % of control | [3] 95 % of control | dose: 400.0 mg/kg/injection, schedule: Q04DX003 (ip), vehicle: Klucel (hydroxypropylcellulose) (HPC) 94 % of control

O/N=C\c1ccc(/C=N/O)cc1
inactive: [4] 97 % of control | [5] 93 % of control | [6] 97 % of control

O=C(O)C(Cc1ccccc1)N1C(=O)C2C3CCC(C3)C2C1=O (stereo unspecified)
inactive: [7] 93 % of control | [8] 93 % of control | [9] 100 % of control and 107 % of control | [10] 110 % of control | [11] 103 % of control

CS(=O)(=O)c1ccc(Sc2ccc(S(C)(=O)=O)cc2)cc1
inactive: dose: 12.5 mg/kg/injection, schedule: Q01DX009 (ip), vehicle: saline with Tween-80 105 % of control | dose: 25.0 mg/kg/injection, schedule: Q01DX009 (ip), vehicle: saline with Tween-80 96 % of control | [7] 98 % of control | [4] 92 % of control | [8] 94 % of control | [9] 93 % of control

BrC(Br)(c1ccccc1)C1OCCO1
inactive: [4] 100 % of control | [5] 106 % of control | [6] 93 % of control

COc1cc(/C=C(/C#N)C(N)=O)cc(OC)c1OC
inactive: [5] 93 % of control | [12] 97 % of control | [6] 93 % of control | [13] 93 % of control | dose: 400.0 mg/kg/injection, schedule: Q01DX009 (ip), vehicle: saline with Tween-80 95 % of control | [14] 97 % of control

C=CC(C)CCCC(C)C (stereo unspecified)
inactive: [15] 91 % of control | dose: 200.0 mg/kg/injection, schedule: Q04DX003 (ip), vehicle: saline 97 % of control | dose: 400.0 mg/kg/injection, schedule: Q04DX003 (ip), vehicle: saline 91 % of control

COC(=O)C1=CN(C(=O)OC)CCC1
inactive: [16] 95 % of control | [17] 88 % of control | [18] 92 % of control

CCOC(=O)C12CCC(C(=O)OCC)(CC1=O)C(=O)C2
inactive: [12] 88 % of control | [13] 95 % of control | [14] 98 % of control

CCOC(=O)/C(O)=C\c1n[n+]([O-])ccc1Cl
inactive: dose: 100.0 mg/kg/injection, schedule: Q04DX002 (ip), vehicle: Klucel (hydroxypropylcellulose) (HPC) 104 % of control | dose: 200.0 mg/kg/injection, schedule: Q04DX002 (ip), vehicle: Klucel (hydroxypropylcellulose) (HPC) 112 % of control | dose: 400.0 mg/kg/injection, schedule: Q04DX002 (ip), vehicle: Klucel (hydroxypropylcellulose) (HPC) 93 % of control

Cc1ccc(S(=O)(=O)N/N=C2/CC3CCC(C)(C2)C3)cc1 (stereo unspecified)
inactive: dose: 12.5 mg/kg/injection, schedule: Q04DX003 (ip), vehicle: saline with Tween-80 100 % of control | [7] 98 % of control | [8] 93 % of control

COc1cc2c(cc1OC)CC[N+](C)=C2
inactive: dose: 12.5 mg/kg/injection, schedule: Q01DX009 (ip), vehicle: saline 92 % of control | [19] 95 % of control | [20] 108 % of control | dose: 50.0 mg/kg/injection, schedule: Q01DX009 (ip), vehicle: saline 93 % of control | dose: 50.0 mg/kg/injection, schedule: Q04DX003 (ip), vehicle: saline 100 % of control | dose: 100.0 mg/kg/injection, schedule: Q01DX009 (ip), vehicle: saline 96 % of control | [15] 103 % of control and 106 % of control

CCc1nc(N)nc(N)c1-c1ccc(Cl)cc1
inactive: dose: 22.0 mg/kg/injection, schedule: Q01DX Z (ip), vehicle: carboxymethylcellulose (CMC) 120 % of control | dose: 25.0 mg/kg/injection, schedule: Q01DX015 (ip), vehicle: carboxymethylcellulose (CMC) 110 % of control | dose: 35.0 mg/kg/injection, schedule: Q01DX Z (ip), vehicle: carboxymethylcellulose (CMC) 118 % of control | dose: 50.0 mg/kg/injection, schedule: Q01DX015 (ip), vehicle: carboxymethylcellulose (CMC) 116 % of control | dose: 75.0 mg/kg/injection, schedule: Q01DX Z (ip), vehicle: carboxymethylcellulose (CMC) 91 % of control | dose: 200.0 mg/kg/injection, schedule: Q01DX015 (ip), vehicle: carboxymethylcellulose (CMC) 104 % of control

C[N+](C)(C)CCCC1C2CCC(C2)C1C[N+](C)(C)C (stereo unspecified)
inactive: dose: 12.0 mg/kg/injection, schedule: Q01DX009 (ip), vehicle: saline 103 % of control | dose: 12.5 mg/kg/injection, schedule: Q04DX003 (ip), vehicle: saline 106 % of control | [19] 104 % of control | [20] 98 % of control

O=C(O)CCNC(=O)c1ccccc1
inactive: dose: 87.5 mg/kg/injection, schedule: Q04DX003 (ip), vehicle: saline 97 % of control | dose: 175.0 mg/kg/injection, schedule: Q04DX003 (ip), vehicle: saline 98 % of control | dose: 350.0 mg/kg/injection, schedule: Q04DX003 (ip), vehicle: saline 93 % of control

NC1CCCCC1.[I][Pb]([I])([I])[I]
inactive: [9] 106 % of control | [10] 95 % of control | [11] 96 % of control

O=c1ccncn1Cc1ccccc1
inactive: [16] 100 % of control | [17] 97 % of control | [18] 91 % of control

CC(=O)Nc1c(Cl)cc2c(c1Cl)Cc1c-2cc(Cl)c(NC(C)=O)c1Cl
inactive: [9] 93 % of control | [10] 93 % of control | [11] 101 % of control

CC(=O)OCC1OC(n2cnc3c(=O)[nH]c(N)nc32)C(OC(C)=O)C1OC(C)=O (stereo unspecified)
inactive: dose: 100.0 mg/kg/injection, schedule: Q01DX005 (ip), vehicle: saline 91 % of control | dose: 200.0 mg/kg/injection, schedule: Q01DX005 (ip), vehicle: saline 102 % of control and 109 % of control

CSc1ccc(NC(=O)c2cccc([N+](=O)[O-])c2C(=O)O)cc1
inactive: dose: 100.0 mg/kg/injection, schedule: Q04DX002 (ip), vehicle: saline 106 % of control | dose: 200.0 mg/kg/injection, schedule: Q04DX002 (ip), vehicle: saline 110 % of control | dose: 400.0 mg/kg/injection, schedule: Q04DX002 (ip), vehicle: saline 106 % of control
